{
  "source": "patent US20030082511A1",
  "about": "“Identification of modulatory molecules using inducible promoters” (priority 2001, published 2003)",
  "key": {"[1]": {"biological_target": "T1, mouse potassium voltage-gated channel KCNC1 (Mus musculus, UniProt P15388)", "T1 construct": "The 2 kb KCNC1 gene fragment and the pcDNA4/Tob vector were gel purified, ligated; host or cells: T-REx CHO cells", "T1 sequence (P15388 1-585 isoform P15388-3)": "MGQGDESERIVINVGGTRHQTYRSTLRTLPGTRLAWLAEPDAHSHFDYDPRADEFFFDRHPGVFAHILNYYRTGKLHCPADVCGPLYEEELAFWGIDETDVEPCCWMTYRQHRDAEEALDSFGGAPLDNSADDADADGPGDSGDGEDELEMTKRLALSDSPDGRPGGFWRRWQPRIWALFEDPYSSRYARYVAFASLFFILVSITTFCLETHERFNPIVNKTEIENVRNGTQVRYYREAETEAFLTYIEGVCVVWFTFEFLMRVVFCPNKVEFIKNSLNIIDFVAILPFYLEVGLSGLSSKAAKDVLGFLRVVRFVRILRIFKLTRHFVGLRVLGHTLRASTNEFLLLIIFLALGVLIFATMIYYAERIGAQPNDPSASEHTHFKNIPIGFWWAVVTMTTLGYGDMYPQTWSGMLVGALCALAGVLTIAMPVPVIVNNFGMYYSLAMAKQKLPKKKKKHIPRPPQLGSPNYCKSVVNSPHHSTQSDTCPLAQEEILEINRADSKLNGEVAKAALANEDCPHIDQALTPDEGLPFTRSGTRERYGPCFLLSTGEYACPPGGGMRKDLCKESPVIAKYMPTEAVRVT", "assay": "Membrane potential assay (Disbac5Me4/Disbac3Me4 fluorescence) in tetracycline-inducible KCNC1 TREX/CHO cells", "format": "cell-based", "details": "for response to KCl addition / depolarization with KCl (membrane potential dye fluorescence): induced KCNC1 CHO cells pre-incubated with BaCl2 30 mM at least 30 minutes; for depolarization (change in fluorescence intensity of the indicator dye) on addition of potassium chloride: KCl added in 50 mM steps, induced vs non-induced KCNC1 CHO cells, FIG. 4", "experimental": "In this example, fluorescent dyes are used to assay for changes in membrane potential, essentially as described in Example 4.\nA KCNC1 positive TREX/CHO clone was plated at 3×10^6 cells in replicate 10 cm tissue culture dishes. After 24 hours one dish was treated with 10 μg/mL deoxycycline to induce KCNC1 expression. After a 24 hour induction period, both induced and uninduced cells were harvested with trypsin, counted, and adjusted to equal cell densities in hybridoma media (Sigma, St. Louis, Mo.). A solution of 3.3×10^5 cells and 0.4 μM of each Disbac5Me4 and Disbac3Me4 in hybridoma media was stirred in a cuvette in a JY-Fluormax-2 fluorometer (JY, Edison N.J.). Fluorescence intensity from 540 nm excitation and 690 nm emission was measured over time. The extracellular potassium chloride level was adjusted to 50 mM, 10 mM, and 150 mM with 3 N KCl at the indicated times. Each cell population was tested in triplicate and the mean and standard error (SE) were determined.\n4-aminopyridine is a known specific inhibitor of Kv3.1b (Grissmer et al., Molec. Pharmacol. 45:1227-1234, 1994; Kirsch and Drewe, Jour. Gen. Physiol. 102:797-816, 1993; Grissmer et al. Jour. Biol. Chem. 267:20971-20979, 1992), the human homologue of KCNC1. […] Pre-incubation with 30 mM KCl had no effect, ruling out the possibility that effects of BaCl2 resulted from simply changing the ionic strength of the extracellular medium (data not shown). Each cell population was tested in triplicate. The mean and SE are shown in the FIG. 5 (aminopyridine) and FIG. 6 (BaCl2)."}, "[2]": {"biological_target": "T2, HERG potassium ion channel (Homo sapiens, UniProt Q12809)", "T2 construct": "expressed in transfected cells; host or cells: T-REx CHO cells, clone 5J", "T2 sequence (Q12809 whole entry)": "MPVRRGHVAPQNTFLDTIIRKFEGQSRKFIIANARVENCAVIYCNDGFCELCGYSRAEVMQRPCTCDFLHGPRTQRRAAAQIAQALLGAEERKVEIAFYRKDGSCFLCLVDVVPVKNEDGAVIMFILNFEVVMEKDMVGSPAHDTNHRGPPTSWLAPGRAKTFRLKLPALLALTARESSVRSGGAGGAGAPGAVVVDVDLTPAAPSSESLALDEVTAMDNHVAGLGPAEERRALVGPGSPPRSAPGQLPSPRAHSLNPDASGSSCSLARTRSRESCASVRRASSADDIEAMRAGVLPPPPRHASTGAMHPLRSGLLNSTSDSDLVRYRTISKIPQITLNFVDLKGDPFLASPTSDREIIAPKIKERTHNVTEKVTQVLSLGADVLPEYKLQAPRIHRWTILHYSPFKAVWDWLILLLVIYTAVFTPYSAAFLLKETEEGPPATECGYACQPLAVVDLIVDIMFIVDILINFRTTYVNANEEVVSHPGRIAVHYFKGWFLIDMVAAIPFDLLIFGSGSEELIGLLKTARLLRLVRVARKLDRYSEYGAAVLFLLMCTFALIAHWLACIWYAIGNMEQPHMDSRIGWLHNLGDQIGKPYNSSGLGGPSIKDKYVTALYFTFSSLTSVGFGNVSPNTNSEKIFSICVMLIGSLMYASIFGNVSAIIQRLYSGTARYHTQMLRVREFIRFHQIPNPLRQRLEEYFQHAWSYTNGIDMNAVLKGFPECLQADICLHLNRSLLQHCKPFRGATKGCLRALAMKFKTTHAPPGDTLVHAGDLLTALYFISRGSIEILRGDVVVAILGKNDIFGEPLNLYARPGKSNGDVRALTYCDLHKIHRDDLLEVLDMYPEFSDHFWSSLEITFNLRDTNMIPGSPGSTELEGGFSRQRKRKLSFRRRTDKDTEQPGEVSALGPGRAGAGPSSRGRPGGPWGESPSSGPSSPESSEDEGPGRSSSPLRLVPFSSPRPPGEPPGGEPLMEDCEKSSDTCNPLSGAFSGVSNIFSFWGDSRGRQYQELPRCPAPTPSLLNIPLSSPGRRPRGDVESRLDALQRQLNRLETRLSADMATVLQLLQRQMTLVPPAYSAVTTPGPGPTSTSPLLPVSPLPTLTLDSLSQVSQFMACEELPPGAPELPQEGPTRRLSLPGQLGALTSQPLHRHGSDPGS", "assay": "Membrane potential assay (Disbac5Me4/Disbac3Me4 fluorescence) in inducible HERG TREX/CHO clone 5J", "format": "cell-based", "details": "FIG. 8", "experimental": "The HERG positive TREX/CHO clone 5J was plated at 3×10^6 cells in replicate 10 cm tissue culture dishes. After 24 hours one dish was treated with […] doxycycline to induce HERG expression. After 24 hours induction, both induced and uninduced cells were harvested with trypsin, counted and adjusted to the same cell density in hybridoma media (Sigma). A solution of 1×10^5 cells/ml and 0.4 μM each Disbac5Me4 and Disbac3Me4 in hybridoma media was stirred in a cuvette in a JY-Spex fluorometer. Fluorescence intensity from 540 excitation and 690 emission was followed over time. The extracellular potassium chloride was adjusted to 100 mM with 3N KCl at the indicated time. 25 nM pimozide was then added at the indicated time."}},
  "data": [
    {"smiles": "Nc1ccncc1", "note": "[4-aminopyridine]", "values": [
      {"measurement": "response to KCl addition (membrane potential dye fluorescence)", "setting": "[1]; induced KCNC1 CHO cells pre-incubated with 4-aminopyridine 900 μM at least 30 minutes, FIG. 5", "value": "lessened the response to KCl addition"},
      {"measurement": "characteristics of cells induced to overexpress KCNC1 compared with uninduced cells", "setting": "[1]; pre-incubated with 4-aminopyridine (900 μM), FIG. 5", "value": "show characteristics more similar to uninduced cells"}
    ]},
    {"smiles": "[Ba+2].[Cl-].[Cl-]", "note": "[BaCl2]", "values": [
      {"measurement": "resting potential", "setting": "[1]; KCNC1 CHO cells pre-incubated with BaCl2 30 mM at least 30 minutes, FIG. 6", "value": "less polarized resting potential"},
      {"measurement": "response to KCl addition / depolarization with KCl (membrane potential dye fluorescence)", "setting": "[1]; FIG. 6", "value": "ameliorated the response to KCl addition"},
      {"measurement": "response to KCl addition / depolarization with KCl (membrane potential dye fluorescence)", "setting": "[1]; FIG. 6, listed as BaCI2", "value": "decreased response to depolarization with KCl"},
      {"measurement": "characteristics of cells induced to overexpress KCNC1 compared with uninduced cells", "setting": "[1]; pre-incubated with BaCl2 (30 mM), FIG. 6", "value": "show characteristics more similar to uninduced cells"}
    ]},
    {"smiles": "[Cl-].[K+]", "note": "[KCl, potassium chloride]", "values": [
      {"measurement": "depolarization (change in fluorescence intensity of the indicator dye) on addition of potassium chloride", "setting": "[1]", "value": "show a response"},
      {"measurement": "depolarization (change in fluorescence intensity of the indicator dye) on addition of potassium chloride", "setting": "[1]; listed as potassium chloride", "value": "depolarization of the an induced population of cells in comparison to a non-induced cell population"},
      {"measurement": "effect of pre-incubation on membrane potential response (ionic strength control)", "setting": "[1]; pre-incubation with 30 mM KCl, data not shown", "value": "no effect"},
      {"measurement": "depolarization on addition of potassium chloride", "setting": "[2]; 100 mM KCl, induced HERG expressing vs uninduced cells", "value": "depolarizes the HERG expressing cells to a greater extent than the uninduced cells"}
    ]},
    {"smiles": "O=c1[nH]c2ccccc2n1C1CCN(CCCC(c2ccc(F)cc2)c2ccc(F)cc2)CC1", "note": "[pimozide]", "values": [
      {"measurement": "sensitivity of membrane potential to pimozide", "setting": "[2]; 25 nM pimozide added after 100 mM KCl, induced vs uninduced cells", "value": "more sensitive"}
    ]}
  ]
}
